Measured values published in the NIST ThermoML archive (doi:10.1016/j.jct.2017.07.006).
Numbers after ± are expanded uncertainties.

Assays:
[1] = Liquid; for thermal conductivity: 101.33 kPa, Laser flash apparatus; for Critical pressure / Critical temperature: Resistive pulse heating
[2] = molar heat capacity at constant pressure; conditions: 101.33 kPa, Liquid, DSC

## CCCCCCCC(=O)OCC(COC(=O)CCCCCCC)OC(=O)CCCCCCC [1,2,3-propanetriol trioctanoate]
[1]; 315 K
  thermal conductivity: 0.152 ± 0.011 W/m/K
[1]; 320 K
  thermal conductivity: 0.152 ± 0.011 W/m/K
[1]; 325 K
  thermal conductivity: 0.151 ± 0.011 W/m/K
[1]; 330 K
  thermal conductivity: 0.151 ± 0.011 W/m/K
[1]; 335 K
  thermal conductivity: 0.151 ± 0.011 W/m/K
[1]; 340 K
  thermal conductivity: 0.15 ± 0.011 W/m/K
[1]; 345 K
  thermal conductivity: 0.15 ± 0.011 W/m/K
[1]; 350 K
  thermal conductivity: 0.15 ± 0.011 W/m/K
[1]; 355 K
  thermal conductivity: 0.149 ± 0.011 W/m/K
[1]; 360 K
  thermal conductivity: 0.149 ± 0.011 W/m/K
[1]; 365 K
  thermal conductivity: 0.148 ± 0.011 W/m/K
[1]; 370 K
  thermal conductivity: 0.148 ± 0.011 W/m/K
[1]; 375 K
  thermal conductivity: 0.147 ± 0.011 W/m/K
[1]; 380 K
  thermal conductivity: 0.146 ± 0.011 W/m/K
[1]; 385 K
  thermal conductivity: 0.146 ± 0.011 W/m/K
[1]; 390 K
  thermal conductivity: 0.145 ± 0.01 W/m/K
[1]; 395 K
  thermal conductivity: 0.145 ± 0.01 W/m/K
[1]; 400 K
  thermal conductivity: 0.144 ± 0.01 W/m/K
[1]; 405 K
  thermal conductivity: 0.144 ± 0.01 W/m/K
[1]; 410 K
  thermal conductivity: 0.143 ± 0.01 W/m/K
[1]; 415 K
  thermal conductivity: 0.142 ± 0.01 W/m/K
[1]; 420 K
  thermal conductivity: 0.142 ± 0.01 W/m/K
[1]; 425 K
  thermal conductivity: 0.141 ± 0.01 W/m/K
[1]
  Critical pressure: 830 ± 40 kPa
  Critical temperature: 836 ± 13 K
[2]; 315 K
  molar heat capacity at constant pressure: 913.3 ± 37 J/K/mol
[2]; 320 K
  molar heat capacity at constant pressure: 921 ± 37 J/K/mol
[2]; 325 K
  molar heat capacity at constant pressure: 928.5 ± 38 J/K/mol
[2]; 330 K
  molar heat capacity at constant pressure: 935.9 ± 38 J/K/mol
[2]; 335 K
  molar heat capacity at constant pressure: 943.1 ± 38 J/K/mol
[2]; 340 K
  molar heat capacity at constant pressure: 950.2 ± 39 J/K/mol
[2]; 345 K
  molar heat capacity at constant pressure: 957.1 ± 39 J/K/mol
[2]; 350 K
  molar heat capacity at constant pressure: 964 ± 39 J/K/mol
[2]; 355 K
  molar heat capacity at constant pressure: 970.7 ± 39 J/K/mol
[2]; 360 K
  molar heat capacity at constant pressure: 977.4 ± 40 J/K/mol
[2]; 365 K
  molar heat capacity at constant pressure: 984.1 ± 40 J/K/mol
[2]; 370 K
  molar heat capacity at constant pressure: 990.7 ± 40 J/K/mol
[2]; 375 K
  molar heat capacity at constant pressure: 997.2 ± 40 J/K/mol
[2]; 380 K
  molar heat capacity at constant pressure: 1004 ± 41 J/K/mol
[2]; 385 K
  molar heat capacity at constant pressure: 1010 ± 41 J/K/mol
[2]; 390 K
  molar heat capacity at constant pressure: 1017 ± 41 J/K/mol
[2]; 395 K
  molar heat capacity at constant pressure: 1024 ± 42 J/K/mol
[2]; 400 K
  molar heat capacity at constant pressure: 1030 ± 42 J/K/mol
[2]; 405 K
  molar heat capacity at constant pressure: 1037 ± 42 J/K/mol
[2]; 410 K
  molar heat capacity at constant pressure: 1044 ± 42 J/K/mol
[2]; 415 K
  molar heat capacity at constant pressure: 1051 ± 43 J/K/mol
[2]; 420 K
  molar heat capacity at constant pressure: 1058 ± 43 J/K/mol
[2]; 425 K
  molar heat capacity at constant pressure: 1065 ± 43 J/K/mol

## CCCCCCCCCCCCCC(=O)OCC(COC(=O)CCCCCCCCCCCCC)OC(=O)CCCCCCCCCCCCC [1,2,3-propanetriyl tri(tetradecanoate)]
[1]; 350 K
  thermal conductivity: 0.171 ± 0.012 W/m/K
[1]; 355 K
  thermal conductivity: 0.17 ± 0.012 W/m/K
[1]; 360 K
  thermal conductivity: 0.17 ± 0.012 W/m/K
[1]; 365 K
  thermal conductivity: 0.169 ± 0.012 W/m/K
[1]; 370 K
  thermal conductivity: 0.169 ± 0.012 W/m/K
[1]; 375 K
  thermal conductivity: 0.168 ± 0.012 W/m/K
[1]; 380 K
  thermal conductivity: 0.168 ± 0.012 W/m/K
[1]; 385 K
  thermal conductivity: 0.168 ± 0.012 W/m/K
[1]; 390 K
  thermal conductivity: 0.167 ± 0.012 W/m/K
[1]; 395 K
  thermal conductivity: 0.167 ± 0.012 W/m/K
[1]; 400 K
  thermal conductivity: 0.166 ± 0.012 W/m/K
[1]; 405 K
  thermal conductivity: 0.165 ± 0.012 W/m/K
[1]; 410 K
  thermal conductivity: 0.164 ± 0.012 W/m/K
[1]
  Critical pressure: 610 ± 30 kPa
  Critical temperature: 925 ± 14 K
[2]; 350 K
  molar heat capacity at constant pressure: 1547 ± 63 J/K/mol
[2]; 355 K
  molar heat capacity at constant pressure: 1557 ± 63 J/K/mol
[2]; 360 K
  molar heat capacity at constant pressure: 1568 ± 64 J/K/mol
[2]; 365 K
  molar heat capacity at constant pressure: 1580 ± 64 J/K/mol
[2]; 370 K
  molar heat capacity at constant pressure: 1592 ± 65 J/K/mol
[2]; 375 K
  molar heat capacity at constant pressure: 1606 ± 65 J/K/mol
[2]; 380 K
  molar heat capacity at constant pressure: 1619 ± 66 J/K/mol
[2]; 385 K
  molar heat capacity at constant pressure: 1632 ± 66 J/K/mol
[2]; 390 K
  molar heat capacity at constant pressure: 1645 ± 67 J/K/mol
[2]; 395 K
  molar heat capacity at constant pressure: 1657 ± 67 J/K/mol
[2]; 400 K
  molar heat capacity at constant pressure: 1668 ± 68 J/K/mol
[2]; 405 K
  molar heat capacity at constant pressure: 1678 ± 68 J/K/mol
[2]; 410 K
  molar heat capacity at constant pressure: 1686 ± 68 J/K/mol

## CCCCCCCCCC(=O)OCC(COC(=O)CCCCCCCCC)OC(=O)CCCCCCCCC [1,2,3-propanetriyl tridecanoate]
[1]; 320 K
  thermal conductivity: 0.153 ± 0.011 W/m/K
[1]; 325 K
  thermal conductivity: 0.153 ± 0.011 W/m/K
[1]; 330 K
  thermal conductivity: 0.153 ± 0.011 W/m/K
[1]; 335 K
  thermal conductivity: 0.153 ± 0.011 W/m/K
[1]; 340 K
  thermal conductivity: 0.153 ± 0.011 W/m/K
[1]; 345 K
  thermal conductivity: 0.153 ± 0.011 W/m/K
[1]; 350 K
  thermal conductivity: 0.152 ± 0.011 W/m/K
[1]; 355 K
  thermal conductivity: 0.152 ± 0.011 W/m/K
[1]; 360 K
  thermal conductivity: 0.151 ± 0.011 W/m/K
[1]; 365 K
  thermal conductivity: 0.15 ± 0.011 W/m/K
[1]; 370 K
  thermal conductivity: 0.15 ± 0.011 W/m/K
[1]; 375 K
  thermal conductivity: 0.15 ± 0.011 W/m/K
[1]; 380 K
  thermal conductivity: 0.149 ± 0.011 W/m/K
[1]; 385 K
  thermal conductivity: 0.148 ± 0.011 W/m/K
[1]; 390 K
  thermal conductivity: 0.147 ± 0.011 W/m/K
[1]; 395 K
  thermal conductivity: 0.147 ± 0.011 W/m/K
[1]; 400 K
  thermal conductivity: 0.146 ± 0.011 W/m/K
[1]; 405 K
  thermal conductivity: 0.145 ± 0.01 W/m/K
[1]; 410 K
  thermal conductivity: 0.144 ± 0.01 W/m/K
[1]; 415 K
  thermal conductivity: 0.143 ± 0.01 W/m/K
[1]
  Critical pressure: 750 ± 30 kPa
  Critical temperature: 864 ± 13 K
[2]; 320 K
  molar heat capacity at constant pressure: 1093 ± 44 J/K/mol
[2]; 325 K
  molar heat capacity at constant pressure: 1106 ± 45 J/K/mol
[2]; 330 K
  molar heat capacity at constant pressure: 1117 ± 45 J/K/mol
[2]; 335 K
  molar heat capacity at constant pressure: 1128 ± 46 J/K/mol
[2]; 340 K
  molar heat capacity at constant pressure: 1139 ± 46 J/K/mol
[2]; 345 K
  molar heat capacity at constant pressure: 1148 ± 47 J/K/mol
[2]; 350 K
  molar heat capacity at constant pressure: 1157 ± 47 J/K/mol
[2]; 355 K
  molar heat capacity at constant pressure: 1166 ± 47 J/K/mol
[2]; 360 K
  molar heat capacity at constant pressure: 1174 ± 48 J/K/mol
[2]; 365 K
  molar heat capacity at constant pressure: 1182 ± 48 J/K/mol
[2]; 370 K
  molar heat capacity at constant pressure: 1189 ± 48 J/K/mol
[2]; 375 K
  molar heat capacity at constant pressure: 1196 ± 49 J/K/mol
[2]; 380 K
  molar heat capacity at constant pressure: 1203 ± 49 J/K/mol
[2]; 385 K
  molar heat capacity at constant pressure: 1209 ± 49 J/K/mol
[2]; 390 K
  molar heat capacity at constant pressure: 1216 ± 49 J/K/mol
[2]; 395 K
  molar heat capacity at constant pressure: 1222 ± 50 J/K/mol
[2]; 400 K
  molar heat capacity at constant pressure: 1228 ± 50 J/K/mol
[2]; 405 K
  molar heat capacity at constant pressure: 1235 ± 50 J/K/mol
[2]; 410 K
  molar heat capacity at constant pressure: 1241 ± 50 J/K/mol
[2]; 415 K
  molar heat capacity at constant pressure: 1248 ± 51 J/K/mol

## CCCCCCCCCCCC(=O)OCC(COC(=O)CCCCCCCCCCC)OC(=O)CCCCCCCCCCC [1,2,3-propanetriyl tridodecanoate]
[1]; 330 K
  thermal conductivity: 0.164 ± 0.012 W/m/K
[1]; 335 K
  thermal conductivity: 0.163 ± 0.012 W/m/K
[1]; 340 K
  thermal conductivity: 0.162 ± 0.012 W/m/K
[1]; 345 K
  thermal conductivity: 0.161 ± 0.012 W/m/K
[1]; 350 K
  thermal conductivity: 0.161 ± 0.012 W/m/K
[1]; 355 K
  thermal conductivity: 0.16 ± 0.012 W/m/K
[1]; 360 K
  thermal conductivity: 0.16 ± 0.012 W/m/K
[1]; 365 K
  thermal conductivity: 0.159 ± 0.011 W/m/K
[1]; 370 K
  thermal conductivity: 0.159 ± 0.011 W/m/K
[1]; 375 K
  thermal conductivity: 0.158 ± 0.011 W/m/K
[1]; 380 K
  thermal conductivity: 0.158 ± 0.011 W/m/K
[1]; 385 K
  thermal conductivity: 0.157 ± 0.011 W/m/K
[1]; 390 K
  thermal conductivity: 0.156 ± 0.011 W/m/K
[1]; 395 K
  thermal conductivity: 0.155 ± 0.011 W/m/K
[1]; 400 K
  thermal conductivity: 0.154 ± 0.011 W/m/K
[1]; 405 K
  thermal conductivity: 0.153 ± 0.011 W/m/K
[1]; 410 K
  thermal conductivity: 0.151 ± 0.011 W/m/K
[1]
  Critical pressure: 650 ± 30 kPa
  Critical temperature: 899 ± 13 K
[2]; 330 K
  molar heat capacity at constant pressure: 1316 ± 53 J/K/mol
[2]; 335 K
  molar heat capacity at constant pressure: 1323 ± 54 J/K/mol
[2]; 340 K
  molar heat capacity at constant pressure: 1331 ± 54 J/K/mol
[2]; 345 K
  molar heat capacity at constant pressure: 1340 ± 54 J/K/mol
[2]; 350 K
  molar heat capacity at constant pressure: 1350 ± 55 J/K/mol
[2]; 355 K
  molar heat capacity at constant pressure: 1361 ± 55 J/K/mol
[2]; 360 K
  molar heat capacity at constant pressure: 1372 ± 56 J/K/mol
[2]; 365 K
  molar heat capacity at constant pressure: 1384 ± 56 J/K/mol
[2]; 370 K
  molar heat capacity at constant pressure: 1396 ± 57 J/K/mol
[2]; 375 K
  molar heat capacity at constant pressure: 1407 ± 57 J/K/mol
[2]; 380 K
  molar heat capacity at constant pressure: 1418 ± 58 J/K/mol
[2]; 385 K
  molar heat capacity at constant pressure: 1428 ± 58 J/K/mol
[2]; 390 K
  molar heat capacity at constant pressure: 1438 ± 58 J/K/mol
[2]; 395 K
  molar heat capacity at constant pressure: 1446 ± 59 J/K/mol
[2]; 400 K
  molar heat capacity at constant pressure: 1453 ± 59 J/K/mol
[2]; 405 K
  molar heat capacity at constant pressure: 1458 ± 59 J/K/mol
[2]; 410 K
  molar heat capacity at constant pressure: 1461 ± 59 J/K/mol
